From PMC6349357, “Computational and experimental analysis of bioactive peptide linear motifs in the integrin adhesome” (PLoS ONE, 2019)
Marks after values point to notes of the source that are not given here.

Tests used:
resting platelets = assay: Platelet aggregation induced by peptide in resting washed platelets (activation); assay type: cell-based, human (healthy volunteers); settings: for Activation, donor 20 08 13: replicate 20_08_13; for Activation, donor 20 08 13 / Activation, donor 22_08_13_DONOR1 / Activation, donor 22_08_13_DONOR2 / Activation, donor 14 06 13 / Activation, donor 18_06_13 / Activation, donor 20_06_13: SDC4 peptides and controls, 20 μM; for Activation, donor 20 08 13 / Activation / Activation, donor 14 06 13 / Activation, 5μM / Activation, 20μM: unit assumed; for Activation, donor 22_08_13_DONOR1: replicate 22_08_13_DONOR1; for Activation, donor 22_08_13_DONOR2: replicate 22_08_13_DONOR2; for Activation: platelet aggregation in resting platelets after 6 minutes incubation with peptide, pal-peptides 20 μM, tat-peptides 50 μM, optical density, aggregometer, mean, n>=3; for Aggregation before TRAP activation, donor h: replicate donor h; for Aggregation before TRAP activation, donor i: replicate donor i; for Aggregation before TRAP activation, donor j: replicate donor j; for Activation, donor 14 06 13: replicate 14_06_13; for Activation, donor 18_06_13: replicate 18_06_13; for Activation, donor 18_06_13 / Activation, donor 20_06_13: in % (unit assumed); for Activation, donor 20_06_13: replicate 20_06_13; for Activation, 5μM / Activation, 20μM: S3 Table, n=3; for Activation, 5μM: peptide 5 μM; for Activation, 20μM: peptide 20 μM
Procedure: (§1) Blood was drawn from healthy volunteers into a syringe containing a final volume of 15% Acid Citrate Dextrose (ACD). The blood/ACD mixture was then aliquoted into 15 ml Cellstar tubes, at volumes of 5ml per tube, and centrifuged at 150 rcf for 10 minutes to obtain platelet rich plasma (PRP). PRP was then transferred to a 50ml tube using a pipette. The pH was then adjusted to 6.5. Prostaglandin (PGE1) was then added with a final concentration of 1μM. The PRP was then centrifuged at 750 rcf. After centrifugation the platelet poor plasma (PPP) was discarded and the pellet was resuspended in buffer A (6 mM dextrose, 130 mM NaCl, 9 mM NaHCO3, 10 mM sodium citrate, 10 mM Tris base, 3 mM KCl, 0.81 mM KH2PO4 and 0.9 mM MgCl26H2O, pH 7.4). A platelet concentration of 3x10^5/μl or 1x10^6/μl was obtained by dilution depending on the experiment in which they were used. Platelets were left to rest for 45 minutes and supplemented with 1.8mM calcium chloride prior to use.
(§2) A platelet concentration of 3x10^5 /μl was used when performing standard aggregations and a concentration of 1x10^6 /μl was used for sample preparation for western blot analysis. The extent of platelet aggregation was measured by quantifying the optical density of the samples using the Bio-Data PAP-8 aggregometer (platelet aggregation profiler, Horsham, PA, USA). A temperature of 37°C was maintained and samples were stirred using magnets spinning at 1100 rpm. 200 μl of washed platelets was added to each aggregation tube. Different volumes of buffer, peptide and TRAP were added to achieve the desired concentrations. Peptide/buffer was added to each well after two minutes. TRAP, with a final concentration depending on the experiment, was added 6 minutes later and data was collected for an additional 7 minutes.

TRAP-activated platelets = assay: Inhibition of TRAP-induced platelet aggregation after pre-incubation with peptide; assay type: cell-based, human (healthy volunteers); settings: for Summary of effects of SDC4-derived palmitylated peptides and scrambled controls, 20μM: S2 Table B / S2 Fig, activation of resting platelets and inhibition of aggregation induced by 4 μM TRAP, in words; for Inhibition, donor 20_08_13: replicate 20_08_13; for Aggregation after TRAP activation, donor h: replicate donor h; for Aggregation after TRAP activation, donor i: replicate donor i; for Aggregation after TRAP activation, donor j: replicate donor j; for Inhibition, donor 14_06_13: replicate 14_06_13; for Inhibition, donor 18_06_13: replicate 18_06_13; for Inhibition, donor 20_06_13: replicate 20_06_13; for Aggregation (inhibition effects of syndecan-derived peptides): S2 Table A, n=6; for Aggregation after TRAP, peptide alone 1x (A 1x / B 1x) / Aggregation after TRAP, peptide alone 2x (A 2x / B 2x): TRAP 2 μM after 6 minutes pre-incubation, mean n = 3; for Aggregation after TRAP, peptide alone 1x (A 1x / B 1x): 4 μM pal-peptides, 10 μM tat-peptides; for Aggregation after TRAP, peptide alone 2x (A 2x / B 2x): double concentration of 4 μM (pal) / 10 μM (tat)
Procedure: as §1, §2

[1] = replicate 22_08_13_DONOR1, peptide 20 μM, TRAP 4 μM
[2] = replicate 22_08_13_DONOR2, peptide 20 μM, TRAP 4 μM
[3] = platelet aggregation induced by 4 μM TRAP in platelets pre-incubated with peptide (low value = inhibition), pal-peptides 20 μM, tat-peptides 50 μM, mean, n>=3
[4] = TRAP 4 μM, pal 20 μM, tat 50 μM
[5] = S3 Table, peptide 5 μM, aggregation after TRAP, n=3
[6] = S3 Table, peptide 20 μM, aggregation after TRAP, n=3

| Substance | Activation, donor 20 08 13 (resting platelets) [%] | Activation, donor 22_08_13_DONOR1 (resting platelets) | Activation, donor 22_08_13_DONOR2 (resting platelets) | Inhibition, donor 20_08_13 (TRAP-activated platelets; peptide 20 μM, TRAP 4 μM) | Platelet aggregation remaining after TRAP (low = inhibition) (TRAP-activated platelets; [1]) | Platelet aggregation remaining after TRAP (low = inhibition) (TRAP-activated platelets; [2]) | Activation (resting platelets) [%] | Aggregation before TRAP activation, donor h (resting platelets; pal 20 μM, tat 50 μM) | Aggregation before TRAP activation, donor i (resting platelets; pal 20 μM, tat 50 μM) | Aggregation before TRAP activation, donor j (resting platelets; pal 20 μM, tat 50 μM) | Platelet aggregation remaining after TRAP (low = inhibition) (TRAP-activated platelets; [3]) | Aggregation after TRAP activation, donor h (TRAP-activated platelets; [4]) | Aggregation after TRAP activation, donor i (TRAP-activated platelets; [4]) | Aggregation after TRAP activation, donor j (TRAP-activated platelets; [4]) | Activation, 5μM (resting platelets) [%] | Activation, 20μM (resting platelets) [%] | Platelet aggregation remaining after TRAP (low = inhibition) (TRAP-activated platelets; [5]) | Platelet aggregation remaining after TRAP (low = inhibition) (TRAP-activated platelets; [6]) | also measured |
| --- | --- | --- | --- | --- | --- | --- | --- | --- | --- | --- | --- | --- | --- | --- | --- | --- | --- | --- | --- |
| NTYAFKAKEP [pal-KK-SDC4_tail Control 1, scrambled control of pal-KK-SDC4_tail, reference compound] | 3 | 1 | 3 | 70 | 76 | 74 | – | – | – | – | – | – | – | – | – | – | – | – | Summary of effects of SDC4-derived palmitylated peptides and scrambled controls, 20μM (TRAP-activated platelets): No effect |
| SSTLSKKRPPPPPPGHKRTLSD-tat-(NH2) [AMAP1-tat, ASAP1/DDEF2 peptide with C-terminal tat] | – | – | – | – | – | – | 4 | 4 | 3 | 5 | 72 | 76 | 62 | 79 | – | – | – | – | – |
| YKDSMERDKGK [pal-SDC4_JM Control 1, scrambled control of pal-SDC4_JM, reference compound] | 70 | 71 | 65 | 71 | 68 | 70 | – | – | – | – | – | – | – | – | – | – | – | – | Effects on activation of aggregation at 1, 5 and 20 μM (resting platelets; S2 Fig A legend, three doses 1, 5, 20 μM): activatory effects; Activation, donor 14 06 13 (resting platelets): 69%; Activation, donor 18_06_13 (resting platelets): 68; Activation, donor 20_06_13 (resting platelets): 66; Summary of effects of SDC4-derived palmitylated peptides and scrambled controls, 20μM (TRAP-activated platelets): Activator; Inhibition, donor 14_06_13 (TRAP-activated platelets; peptide 20 μM, TRAP 4 μM): 76; Inhibition, donor 18_06_13 (TRAP-activated platelets; peptide 20 μM, TRAP 4 μM): 72; Inhibition, donor 20_06_13 (TRAP-activated platelets; peptide 20 μM, TRAP 4 μM): 71 |
| pal-NNPLYKEA-(NH2) [pal-ITGB3_middle2, N-terminally palmitylated ITGB3 peptide NNPLYKEA] | – | – | – | – | – | – | 1 | 2 | 2 | 1 | 74 | 74 | 71 | 78 | – | – | – | – | – |
| pal-KVGAAKR-FAKFEEERAR [B14p ITGA2b-JM2 U ITGB3-middle1, palmitylated chimeric peptide] | – | – | – | – | – | – | – | – | – | – | – | – | – | – | 2 | 0 | 71 | 3 | – |
| pal-RMKKKDEGSYD-(NH2) [pal-SDC4_JM, N-terminally palmitylated syndecan-4 juxtamembrane peptide] | 1 | 0 | 1 | 7 | 3 | 58 | 0 | 1 | 0 | 2 | – | 4 | 3 | 5 | 2 | 1 | – | – | Activation, donor 14 06 13 (resting platelets): 1%; Activation, donor 18_06_13 (resting platelets): 1; Activation, donor 20_06_13 (resting platelets): 2; Aggregation (inhibition effects of syndecan-derived peptides) (TRAP-activated platelets; peptide 20 μM, TRAP 4 μM, mean): 45; Summary of effects of SDC4-derived palmitylated peptides and scrambled controls, 20μM (TRAP-activated platelets): Inhibitor; Platelet aggregation remaining after TRAP (low = inhibition) (TRAP-activated platelets; S3 Table, peptide 5 μM, aggregation after TRAP, n=3, listed as A7p SDC4-JM): 75; Platelet aggregation remaining after TRAP (low = inhibition) (TRAP-activated platelets; S3 Table, peptide 5 μM, aggregation after TRAP, n=3, listed as Juxtamembrane (A)): 64; Platelet aggregation remaining after TRAP (low = inhibition) (TRAP-activated platelets; S3 Table, peptide 20 μM, aggregation after TRAP, n=3, listed as A7p SDC4-JM): 73; Platelet aggregation remaining after TRAP (low = inhibition) (TRAP-activated platelets; S3 Table, peptide 20 μM, aggregation after TRAP, n=3, listed as Juxtamembrane (A)): 45; Aggregation after TRAP, peptide alone 1x (A 1x / B 1x) (TRAP-activated platelets): 66.33; Aggregation after TRAP, peptide alone 2x (A 2x / B 2x) (TRAP-activated platelets): 64.33; Platelet aggregation after TRAP activation (TRAP-activated platelets; [3]): 4 ^*; Inhibition, donor 14_06_13 (TRAP-activated platelets; peptide 20 μM, TRAP 4 μM): 72; Inhibition, donor 18_06_13 (TRAP-activated platelets; peptide 20 μM, TRAP 4 μM): 56; Inhibition, donor 20_06_13 (TRAP-activated platelets; peptide 20 μM, TRAP 4 μM): 74 |
| pal-FAKFEEERAR-(NH2) [pal-ITGB3_middle1, N-terminally palmitylated ITGB3 peptide …] | – | – | – | – | – | – | 0 | 1 | 1 | 0 | 45 | 64 | 60 | 12 | 2 | 2 | 73 | 68 | Aggregation after TRAP, peptide alone 1x (A 1x / B 1x) (TRAP-activated platelets): 67.67; Aggregation after TRAP, peptide alone 2x (A 2x / B 2x) (TRAP-activated platelets): 43.67 |
| pal-KVGFFKR-LGKKPIYKK [B18p ITGA2b-JM U SDC4-middle, palmitylated chimeric peptide] | – | – | – | – | – | – | – | – | – | – | – | – | – | – | 61 | 13 | 65 | 27 | – |
| Pal-LGKKPIYKK-APTNEFYA [pal-SDC4-middle U SDC4-tail, palmitylated chimeric peptide of SDC4 middle and tail regions] | 4 | 1 | 4 | 6 | 2 | 6 | – | – | – | – | – | – | – | – | 3 | 2 | 63 | 5 | Activation, donor 14 06 13 (resting platelets): 3%; Activation, donor 18_06_13 (resting platelets): 3; Activation, donor 20_06_13 (resting platelets): -2; Aggregation (inhibition effects of syndecan-derived peptides) (TRAP-activated platelets; peptide 20 μM, TRAP 4 μM, mean): 5; Inhibition, donor 14_06_13 (TRAP-activated platelets; peptide 20 μM, TRAP 4 μM): 5; Inhibition, donor 18_06_13 (TRAP-activated platelets; peptide 20 μM, TRAP 4 μM): 5; Inhibition, donor 20_06_13 (TRAP-activated platelets; peptide 20 μM, TRAP 4 μM): 7 |
| NSDTPPRPDRLPL-tat [PTPN12-tat, PTPN12 peptide with C-terminal tat] | – | – | – | – | – | – | 3 | – | – | – | 75 | – | – | – | – | – | – | – | Aggregation before TRAP activation, donor a (resting platelets; replicate donor a, pal 20 μM, tat 50 μM): 3; Aggregation before TRAP activation, donor b (resting platelets; replicate donor b, pal 20 μM, tat 50 μM): 4; Aggregation before TRAP activation, donor c (resting platelets; replicate donor c, pal 20 μM, tat 50 μM): 4; Aggregation before TRAP activation, donor d (resting platelets; replicate donor d, pal 20 μM, tat 50 μM): 4; Aggregation before TRAP activation, donor e (resting platelets; replicate donor e, pal 20 μM, tat 50 μM): 3; Aggregation after TRAP activation, donor a (TRAP-activated platelets; replicate donor a, TRAP 4 μM, pal 20 μM, tat 50 μM): 73; Aggregation after TRAP activation, donor b (TRAP-activated platelets; replicate donor b, TRAP 4 μM, pal 20 μM, tat 50 μM): 76; Aggregation after TRAP activation, donor c (TRAP-activated platelets; replicate donor c, TRAP 4 μM, pal 20 μM, tat 50 μM): 76; Aggregation after TRAP activation, donor d (TRAP-activated platelets; replicate donor d, TRAP 4 μM, pal 20 μM, tat 50 μM): 75; Aggregation after TRAP activation, donor e (TRAP-activated platelets; replicate donor e, TRAP 4 μM, pal 20 μM, tat 50 μM): 78 |
| pal-KVGAAKR [pal-ITGA2bJM2] | – | – | – | – | – | – | – | – | – | – | – | – | – | – | 1 | 1 | 28 | 3 | – |
| pal-WEQLLTTIARTINEVENQI [B3p ACTN1-VBS] | – | – | – | – | – | – | – | – | – | – | – | – | – | – | 2 | 1 | 76 | 73 | – |
